# How the values were obtained:
# [1] = Stability at different pH (LC-MS); assay type: physicochemical; details: pH 0.18, 5.00 and 8.80; 50 μM and 500 μM; room temperature and 37°C; 24 hours
# Method: Stability experiments were carried out at two concentrations and three pH values. Concentrations were 500 μmol/l (50 μl of 10 mM stock solution were dissolved in buffers of specific pH to a final volume of 1 ml) and 50 μmol/l (10 μl of stock solution were dissolved in buffers of specific pH to a final volume of 2 ml); pH: 0.18 (0.5 M HCl), 5 (0.1M NH4Ac adjusted with acetic acid), and 8.8 (0.1M NH4Ac adjusted with NaOH). The experiments were conducted at room temperature and 37°C, respectively. Samples were injected onto HPLC machine at different time points to assess the levels of decomposition. Time points: 0.5; 1; 3.5; 24 hrs. HPLC analytical parameters: Method: 0–100% B in 5 min, 100% C in 15 min, hold to 20 min. A = 25 mM NH4Ac, B = 25 mM NH4Ac in 50% MeCN, C = MeCN. Column: PFP, 100 x 4.6 mm, 3 um. Injection: 10 μl for 500 μM. Injection: 50 μl for 50 μM. Detection: PDA 210–400 nm; MS TIC 200–800 m/z.
# mice [2] = assay: MTD test in mouse model, administration per os; assay type: in vivo, Mice ICR; details: for gross pathology findings: males and females
# Method: (§1) The MTD (maximum tolerated dose) in mouse model was carried out by MediTox s.r.o. on a commercial basis. The complete protocol for the MTD testing can be found in S3 Supporting Information.
# (§2) For the administration the appropriate amount of the Test item (TI) was dissolved in water (aqua for injection, B. Braun, Germany) and administered to mice either orally (in the volume of 0.5 mL/25 g of body weight) or intraperitoneally (in the volume of 1.0 mL/25 g of body weight).
# (§3) S3 and S4 Tables summarize the test system parameters, the number of animals used, and the doses tested. Briefly, for each dose, 3 males are 3 females were used.
# (§4) All animals from the study were observed daily for clinical signs, morbidity or mortality during acclimation, 0.5, 4, 6, 24 and 48 hours after administration. Onset, duration and severity of any signs were recorded, and used as criteria for early euthanasia decisions. The clinical observations included: changes in skin, fur, eyes, occurrence of secretion and excretion; autonomic activity (e.g. lacrimation, piloerection); changes in gait and posture; changes in unprovoked behavior, presence of stereotypes or bizarre behavior; response to handling. Ether was used for anesthesia in compliance with the Standard Operating Procedures (SOPs) of MediTox, the European convention for the protection of vertebrate animals used for experimental and other scientific purposes (ETS 123), the Czech Collection of laws No. 246/1992, inclusive of the amendments, on the Protection of animals against cruelty, and Public Notice of the Ministry of Agriculture of the Czech Republic, Collection of laws No. 419/2012 as amended, on keeping and exploitation of experimental animals. MediTox s.r.o. is a holder of the accreditation Certificate for user’s issued by Central Committee for Animal Protection of the Czech Republic.
# (§5) All the animals that died during study or survived to their scheduled euthanasia (cervical dislocation under ether anesthesia) 8th day after the administration received a complete post-mortem examination and microscopic examination of organs showing evidence of gross pathology. The cause of death of animals that died during the study before the scheduled euthanasia was mainly venostasis of kidneys and liver.
# (§6) S3 Supporting in formation. MTD test in mouse mo d el – a detailed […]
# (§7) The MTD (maximum tolerated dose) in mouse model was carried out by MediTox s.r.o. on the […]
# (§8) The stud y w as carried ou t accordin g to:
# (§9) ICH M3(R2) – The International Conference on Harmonization of Technical Requirements for Registration of Pharm aceuticals for Human Use. Relevant SOPs (Standard operating procedures ) […]
# (§10) Facility Management and Animal Husbandry
# (§11) Animal car e was in comp liance with th e SOPs of MediTox s.r.o., the Euro pean convention fo r the protection of vertebrate animals used for experimental and other scientific purposes (ETS 123), the Czech Collection of laws No. 246/1992, inclusive of the amendments, on the Protection of animals against cruelty, and Public Notice of the Ministry of Agriculture of the Czech Republic, Collection of laws No. 419/2012 as amended, on keeping and exploitation of experimental animals. MediTox s.r.o. is a holder of the accreditation Certificate for user’s issued by Central Committee for Animal Protection of the Czech Republic.
# (§12) Animal Welfare Act Compliance
# (§13) The stud y was prepared for this t ype of ex perimen t and approved b y th e Ins titutional Animal Care and Use Committee ( IAC UC) and the Committee for Animal Protection of the Ministry of Health (PP 09/2013) of the Czech Republic. Procedures used in this report were designed to conform to accepted practices and to minimize or avoid causing pain, distress, or discomfort to the animals.
# (§14) The number of animals selected for use in this study was considered to be the minimum number necessar y to meet scienti fic and regulator y guideli nes for this t ype of stud y.
# (§15) Preparation of the Test item application formulations […]
# mice [3] = assay: MTD test in mouse model, administration intraperitoneally; assay type: in vivo, Mice ICR
# Method: as §1, §2, §3, §4, §5, §6, §7, §8, §9, §10, §11, §12, §13, §14, §15
# Caco-2 monolayers = assay: Transepithelial transport in Caco-2 monolayers; assay type: in vitro ADME; details: 3 h incubation
# [4] = D2-IP 500 mg/kg i.p., females, 3 animals
# [5] = D2-IP 500 mg/kg i.p., males, 3 animals
# [6] = D3-IP 250 mg/kg i.p., females, 3 animals
# [7] = D3-IP 250 mg/kg i.p., males, 3 animals
# [8] = D4-IP 80 mg/kg i.p., females, 3 animals
# [9] = D4-IP 80 mg/kg i.p., males, 3 animals
# [10] = D5-IP 50 mg/kg i.p., females, 3 animals
# [11] = D5-IP 50 mg/kg i.p., males, 3 animals
smiles,measurement,setting,value
CCCCCCCCCCCCCCCCOP(=O)(CCN1C[C@@H](O)[C@H](O)C1)OC[C@H]1O[C@@H](n2ccc(=O)[nH]c2=O)[C@H](O)[C@@H]1O (stereo partly drawn) [DR5026],stability (decomposition by LC-MS),[1],no detectable decomposition
same,gross pathology findings,"mice [2]; D1-PO, 5 mg/kg p.o.",NO FINDINGS
same,gross pathology findings,"mice [2]; D2-PO, 500 mg/kg p.o.",NO FINDINGS
same,gross pathology findings,"mice [2]; D3-PO, 1000 mg/kg p.o.",NO FINDINGS
same,gross pathology findings,"mice [2]; D4-PO, 1500 mg/kg p.o.",NO FINDINGS
same,gross pathology findings,"mice [2]; D5-PO, 2000 mg/kg p.o.",NO FINDINGS
same,signs of toxicity,"mice [2]; per os 5, 500, 1000, 1500 and 2000 mg/kg, single dose",did not cause any signs of toxicity
same,gross pathology changes,mice [2]; per os 5-2000 mg/kg,no gross pathology changes were detected
same,highest peroral dose without any signs of toxicity (maximal tolerated dose),"mice [2]; peroral, single dose",2000 mg/kg
same,gross pathology findings,"mice [3]; D1-IP, 5 mg/kg i.p., males and females",NO FINDINGS
same,"abdominal cavity red liquid, number of animals with finding",mice [3]; [4],2
same,"kidneys venostasis, number of animals with finding",mice [3]; [4],2
same,"liver venostasis, number of animals with finding",mice [3]; [4],2
same,"lungs focal hemorrhage, number of animals with finding",mice [3]; [4],1
same,"abdominal cavity red liquid, number of animals with finding",mice [3]; [5],2
same,"kidneys venostasis, number of animals with finding",mice [3]; [5],2
same,"liver venostasis, number of animals with finding",mice [3]; [5],2
same,"abdominal cavity red liquid, number of animals with finding",mice [3]; [6],3
same,"kidneys venostasis, number of animals with finding",mice [3]; [6],3
same,"liver venostasis, number of animals with finding",mice [3]; [6],3
same,"thoracic cavity red liquid, number of animals with finding",mice [3]; [6],1
same,"abdominal cavity red liquid, number of animals with finding",mice [3]; [7],3
same,"kidneys venostasis, number of animals with finding",mice [3]; [7],3
same,"liver venostasis, number of animals with finding",mice [3]; [7],3
same,"lungs venostasis, number of animals with finding",mice [3]; [7],1
same,"thoracic cavity red liquid, number of animals with finding",mice [3]; [7],1
same,"liver enlarged, number of animals with finding",mice [3]; [8],3
same,"liver rounded edges, number of animals with finding",mice [3]; [8],3
same,"abdominal cavity red liquid, number of animals with finding",mice [3]; [9],1
same,"kidneys venostasis, number of animals with finding",mice [3]; [9],1
same,"liver enlarged, number of animals with finding",mice [3]; [9],2
same,"liver rounded edges, number of animals with finding",mice [3]; [9],2
same,"liver venostasis, number of animals with finding",mice [3]; [9],1
same,"liver enlarged, number of animals with finding",mice [3]; [10],3
same,"liver rounded edges, number of animals with finding",mice [3]; [10],3
same,"spleen peritoneal adhesions, number of animals with finding",mice [3]; [10],1
same,"liver enlarged, number of animals with finding",mice [3]; [11],3
same,"liver peritoneal adhesions, number of animals with finding",mice [3]; [11],2
same,"liver rounded edges, number of animals with finding",mice [3]; [11],3
same,"spleen peritoneal adhesions, number of animals with finding",mice [3]; [11],2
same,safe limit (maximal tolerated dose),mice [3]; administered peritoneally,50 mg/kg
same,clinical signs,mice [3]; i.p. 80 mg/kg,all the monitored animals were slightly stolid 5 min after the administration
same,severe clinical signs / moribund animals,"mice [3]; i.p. 80 mg/kg, 24-26 hours",In one male a disturbance of locomotion was observed
same,clinical signs,mice [3]; i.p. 250 mg/kg and 500 mg/kg,exacerbated the symptoms
same,mortality,"mice [3]; i.p. 500 mg/kg, several hours after administration, 3 males + 3 females",death of 2 males and 2 females
same,signs of toxicity,mice [3]; i.p. 5 and 50 mg/kg,did not cause any signs of toxicity
same,compound in the Caco-2 cell lysate,Caco-2 monolayers,No compound was detected
same,compound at the basolateral (acceptor) side,Caco-2 monolayers; apical to basolateral,No compound was detected

# — article PMC4696656, “Insights into the Mechanism of Action of Bactericidal Lipophosphonoxins” (PLoS ONE, 2015)
